Source: patent US9328138B2 (priority 2011, dated 2016)

Experiments:
[1] = molecular target: HCV NS3 protease genotype 3a (3A-1) (Hepatitis C virus genotype 3a, UniProt Q81258); assay: HCV NS3 protease time-resolved fluorescence (TRF) assay, genotype 3a; assay type: biochemical; conditions: Ki 3a
Procedure, shortened: (§1)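 Assay buffer: 50 mM HEPES pH 7.5, 150 mM NaCl, 0.1% PEG 8000, 0.15% Triton X-100. Ten-minute enzyme–inhibitor preincubation; substrate at 25 nM final; 6 h reaction, room temperature; signal/background set at 5-20 by enzyme amount.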

[2] = molecular target: T1, HCV genotype 1b (BK) NS3 modified enzyme with a R155K mutation (Hepatitis C virus genotype 1b, UniProt P26663, R1181K); assay: HCV NS3 protease time-resolved fluorescence (TRF) assay, genotype 1b R155K; assay type: biochemical; conditions: Ki 1b R155K
T1 construct: HCV genotype 1b (BK) NS3 modified enzyme
Procedure, shortened: as §1

[3] = genotype 1b (BK) NS3 R155K, single value

| SMILES | Ki [1] [nM] | Ki [2, 3] [nM] | Ki ([2]; first of two values printed in the cell (not explained)) [nM] | Ki ([2]; second of two values printed in the cell (not explained)) [nM] |
| --- | --- | --- | --- | --- |
| C=C[C@@H]1C[C@]1(NC(=O)[C@@H]1C[C@@H]2CN1C(=O)[C@H](C(C)(C)C)NC(=O)O[C@@H]1CCC[C@H]1CCCCCc1c(nc3ccccc3c1OCCN1CCOCC1)O2)C(=O)NS(=O)(=O)C1(C)CC1 [Example 105, (3aR,7S,10S,12R,24aR)-7-tert-butyl-N-[(1R,2S)-2-ethenyl-1-{[(1-methyl-cyclopropyl)sulfonyl]carbamoyl}cyclopropyl]-19-[2-(morpholin-4-yl)ethoxy]-5,8-dioxo-1,2,3,3a, 5,6,7,8,11,12,20,21, 22,23,24,24a-hexadeca hydro-10H-9,12-methanocyclopenta [18,19][1,10,3,6]dioxadiazacyclo nonadecino[11,12-b]quinoline-10-carboxamide] | 14 | 0.43 |  |  |
| C=C[C@@H]1C[C@]1(NC(=O)[C@@H]1C[C@@H]2CN1C(=O)[C@H](C(C)(C)C)NC(=O)O[C@@H]1CCC[C@H]1CCCCCc1c(nc3ccccc3c1OCCN1CCCC1)O2)C(=O)NS(=O)(=O)C1(COC)CC1 [Example 102, (3aR,7S,10S,12R,24aR)-7-tert-butyl-N-[(1R,2S)-2-ethenyl-1-({[1-(methoxymethyl)cyclopropyl]sulfonyl}carbamoyl)cyclopropyl]-5,8-dioxo-19-[2-(pyrrolidin-1-yl)ethoxy]-1,2,3,3a, 5,6,7,8,11,12,20,21,22,23,24,24a-hexadecahydro-10H-9,12-methanocyclopenta[18,19] [1,10,3,6]dioxadiazacyclo-nonadecino[11,12-b]quinoline-10-carboxamide] | 3.2 | 0.21 |  |  |
| C=C[C@@H]1C[C@]1(NC(=O)[C@@H]1C[C@@H]2CN1C(=O)[C@H](C(C)(C)C)NC(=O)O[C@@H]1C[C@H]1CCCCCc1c(nc3ccccc3c1OCCCN1CCCC(F)C1)O2)C(=O)NS(=O)(=O)C1(C)CC1 (stereo partly drawn) [Example 158, (1aR,5S,8S,10R,22aR)-5-tert-butyl-N-[(1R,2S)-2-ethenyl-1-{[(1-methylcyclopropyl)sulfonyl]carbamoyl}cyclopropyl]-17-[3-(3-fluoropiperidin-1-yl)propoxy]-3,6-dioxo-1,1a,3,4,5,6,9,10,18,19, 20,21,22,22a-tetradecahydro-8H-7,10-methanocyclopropa[18,19][1,10,3,6] dioxadiazacyclononadecino[11,12-b] quinoline-8-carboxamide] | 2.6 | 0.19 |  |  |
| C=C[C@@H]1C[C@]1(NC(=O)[C@@H]1C[C@@H]2CN1C(=O)[C@H](C(C)(C)C)NC(=O)O[C@@H]1C[C@H]1CCCCCc1c(nc3ccccc3c1OCCN1CC(O)C1)O2)C(=O)NS(=O)(=O)C1(C)CC1 [Example 174, (1aR,5S,8S,10R,22aR)-5-tert-butyl-N-[(1R,2S)-2-ethenyl-1-{[(1-methylcyclopropyl)sulfonyl]carbamoyl}cyclopropyl]-17-[2-(3-hydroxyazetidin-1-yl)ethoxy]-3,6-dioxo-1,1a,3,4,5,6,9,10,18,19,20,21,22,22a-tetradecahydro-8H-7,10-methanocyclopropa[18,19][1,10,3,6] dioxadiazacyclononadecino[11,12-b] quinoline-8-carboxamide] | 1.1 | 0.057 |  |  |
| C=C[C@@H]1C[C@]1(NC(=O)[C@@H]1C[C@@H]2CN1C(=O)[C@H](C1CCCC1)NC(=O)O[C@@H]1CCC[C@H]1CC/C=C/Cc1c(nc3cc(Cl)ccc3c1OC)O2)C(=O)NS(=O)(=O)C1CC1 [Example 9, (3aR,7S,10S,12R,21E,24aS)-16-chloro-7-cyclopentyl-N-{(1R,2S)-1-[(cyclopropylsulfonyl)carbamoyl]-2-ethenylcyclopropyl}-19-methoxy-5,8-dioxo-1,2,3,3a,5,6,7,8,11,12,20,23,24,24a-tetradecahydro-10H-9,12-methanocyclopenta [18,19][1,10,3,6]dioxadiazacyclononadecino [11,12-b]quinoline-10-carboxamide] | 2.9 | 0.14 |  |  |
| C=C[C@@H]1C[C@]1(NC(=O)[C@@H]1C[C@@H]2CN1C(=O)[C@H](C1CCCC1)NC(=O)O[C@@H]1CCC[C@H]1CC/C=C/Cc1c(nc3ccccc3c1OCCO)O2)C(=O)NS(=O)(=O)C1CC1 [Example 69, (3aR,7S,10S,12R,21E,24aS)-7-cyclopentyl-N-{(1R,2S)-1-[(cyclopropylsulfonyl)carbamoyl]-2-ethenylcyclopropyl}-19-(2-hydroxyethoxy)-5,8-dioxo-1,2,3,3a,5,6,7,8,11,12,20,23,24,24a-tetradecahydro-10H-9,12-methanocyclopenta[18,19][1,10,3,6]dioxadiazacyclononadecino[11,12-b]quinoline-10-carboxamide] | 1.8 | < 0.016 |  |  |
| C=C[C@@H]1C[C@]1(NC(=O)[C@@H]1C[C@@H]2CN1C(=O)[C@H](C(C)(C)C)NC(=O)O[C@@H]1C[C@H]1CCCCCc1c(nc3ccccc3c1OCCCN(CCOC)CCOC)O2)C(=O)NS(=O)(=O)C1(C)CC1 [Example 186, (1aR,5S,8S,10R,22aR)-17-{3-[bis(2-methoxyethyl)amino]propoxy}-5-tert-butyl-N-[(1R,2S)-2-ethenyl-1-{[(1-methylcyclopropyl)sulfonyl]carbamoyl}cyclopropyl]-3,6-dioxo-1,1a,3,4,5,6,9,10, 18,19,20,21,22,22a-tetradecahydro-8H-7,10-methanocyclopropa[18,19][1,10,3,6] dioxadiazacyclononadecino[11,12-b] quinoline-8-carboxamide] | 1.9 | 0.078 |  |  |
| C=C[C@@H]1C[C@]1(NC(=O)[C@@H]1C[C@@H]2CN1C(=O)[C@H](C1CCCCC1)NC(=O)O[C@@H]1C[C@H]1CCCCCc1c(nc3ccccc3c1OC1CC3COCC(C1)N3)O2)C(=O)NS(=O)(=O)C1(C)CC1 (stereo partly drawn) [Example 288, (1aR,5S,8S,10R,22aR)-5-cyclohexyl-N-[(1R,2S)-2-ethenyl-1-{[(1-methylcyclopropyl)sulfonyl]carbamoyl}cyclopropyl]-17-(3-oxa-9-azabicyclo[3.3.1]non-7-yloxy)-3,6-dioxo-1,1a,3,4,5,6,9,10,18,19,20,21,22,22a-tetradecahydro-8H-7,10-methanocyclopropa[18,19][1,10,3,6]dioxadiazacyclononadecino[11,12-b]quinoline-8-carboxamide] | 0.224 |  | 0.018 | 0.05 |
| C=C[C@@H]1C[C@]1(NC(=O)[C@@H]1C[C@@H]2CN1C(=O)[C@H](C(C)(C)C)NC(=O)O[C@@H]1CCC[C@H]1CCCCCc1c(nc3ccccc3c1O)O2)C(=O)NS(=O)(=O)C1(COCc2ccccc2)CC1 [Example 36, (3aR,7S,10S,12R,24aR)-N-{(1R,2S)-1-[({1-[(benzyloxy)methyl]cyclopropyl}sulfonyl)carbamoyl]-2-ethenylcyclopropyl}-7-tert-butyl-19-hydroxy-5,8-dioxo-1,2,3,3a,5,6,7,8,11,12, 20,21,22,23,24,24a-hexadeca hydro-10H-9,12-methanocyclopenta[18,19][1,10,3,6] dioxadiazacyclononadecino[11,12-b] quinoline-10-carboxamide] | 3.2 | 0.15 |  |  |
| C=C[C@@H]1C[C@]1(NC(=O)[C@@H]1C[C@@H]2CN1C(=O)[C@H](C(C)(C)C)NC(=O)O[C@@H]1C[C@H]1CCCCCc1c(nc3cc(C)ccc3c1OCCCN1CCCC1)O2)C(=O)NS(=O)(=O)C1(C)CC1 [Example 146, (1aR,5S,8S,10R,22aR)-5-tert-butyl-N-[(1R,2S)-2-ethenyl-1-{[(1-methylcyclopropyl)sulfonyl]carbamoyl}cyclopropyl]-14-methyl-3,6-dioxo-17-[3-(pyrrolidin-1-yl)propoxy]-1,1a,3,4,5,6,9,10,18, 19,20,21,22,22a-tetradecahydro-8H-7,10-methano cyclopropa[18,19][1,10,3,6] dioxadiazacyclonona decino[11,12-b]quinoline-8-carboxamide] | 0.68 | 0.054 |  |  |
| C=C[C@@H]1C[C@]1(NC(=O)[C@@H]1C[C@@H]2CN1C(=O)[C@H](C(C)(C)C)NC(=O)O[C@@H]1C[C@H]1CCCCCc1c(nc3ccccc3c1OCC1CCN(CCOC)CC1)O2)C(=O)NS(=O)(=O)C1(C)CC1 [Example 228, (1aR,5S,8S,10R,22aR)-5-tert-butyl-N-[(1R,2S)-2-ethenyl-1-{[(1-methylcyclopropyl)sulfonyl]carbamoyl}cyclopropyl]-17-{[1-(2-methoxyethyl)piperidin-4-yl]methoxy}-3,6-dioxo-1,1a,3,4,5,6,9,10,18,19,20,21,22,22a-tetradecahydro-8H-7,10-methanocyclopropa[18,19][1,10,3,6] dioxadiazacyclononadecino[11,12-b]quinoline-8-carboxamide] | 0.47 | 0.11 |  |  |
| C=C[C@@H]1C[C@]1(NC(=O)[C@@H]1C[C@@H]2CN1C(=O)[C@H](C(C)(C)C)NC(=O)O[C@@H]1C[C@H]1CCCCCc1c(nc3ccccc3c1O)O2)C(=O)NS(=O)(=O)C1(C)CC1 [Example 120, (1aR,5S,8S,10R,22aR)-5-tert-butyl-N-[(1R,2S)-2-ethenyl-1-{[(1-methylcyclopropyl)sulfonyl]carbamoyl}cyclopropyl]-17-hydroxy-3,6-dioxo-1,1a,3,4,5,6,9,10,18, 19,20,212,22,22a-tetradeca hydro-8H-7,10-methanocyclopropa [18,19][1,10,3,6]dioxadiazacyclo-nonadecino [11,12-b]quinoline-8-carboxamide] | 1.1 | 0.062 |  |  |
